Assay results from US7977365B2 (priority 2006, dated 2011).
Like-named read-outs stand apart in the source and are kept apart here.

Experiments:
[1] = system: Lassa GP-pseudotyped-virus; assay: microbe, parasite or virus in culture; assay type: cell-based, Lassa fever virus; conditions: for EC50: Human immunodeficiency virus 1, read-out: Activity against Lassa GP-pseudotyped-virus EC50
[2] = system: Lassa fever virus (Josiah strain); assay: organism not typed; assay type: cell-based; conditions: read-out: Activity vs. LFV EC50
[3] = system: LASV GP; assay: organism not typed; assay type: cell-based; conditions: HEK-293T
[4] = system: VSVg; assay: microbe, parasite or virus in culture; assay type: cell-based, vesicular stomatitis virus; conditions: read-out: IC50 ± SEM, VSV envelope pseudotype
[5] = system: unselected TCRV; assay type: cell-based
[6] = system: envelope of the New World arenavirus Guanarito; assay: microbe, parasite or virus in culture; assay type: cell-based; conditions: read-out: EC50, Guanarito envelope pseudotyped viral infection
[7] = system: Machupo GP; assay: organism not typed; assay type: cell-based; conditions: HEK-293T, 72 h, read-out: IC50 ± SEM, Machupo GP pseudotype
[8] = system: Sabia GP; assay: organism not typed; assay type: cell-based; conditions: HEK-293T, 72 h, read-out: IC50 ± SEM, Sabia GP pseudotype
[9] = system: Tacaribe GP; assay: organism not typed; assay type: cell-based; conditions: HEK-293T, 72 h, read-out: IC50 ± SEM, Tacaribe GP pseudotype
[10] = system: envelope of the New World arenavirus Tacaribe; assay: microbe, parasite or virus in culture; assay type: cell-based; conditions: read-out: EC50, Tacaribe envelope pseudotyped viral infection
[11] = in vitro; conditions: human
[12] = at 50 μM
[13] = system: LCMV GP; assay: organism not typed; assay type: cell-based; conditions: HEK-293T, 72 h, read-out: IC50 ± SEM, LCMV (wt) GP pseudotype
[14] = system: Guanarito GP; assay: organism not typed; assay type: cell-based; conditions: HEK-293T, 72 h, read-out: IC50 ± SEM, Guanarito GP pseudotype
[15] = system: Pichinde GP; assay: organism not typed; assay type: cell-based; conditions: HEK-293T, 72 h, read-out: IC50 ± SEM, Pichinde (wt) GP pseudotype
[16] = system: Junín GP; assay: organism not typed; assay type: cell-based; conditions: HEK-293T, 72 h, read-out: IC50 ± SEM, Junín GP pseudotype

SMILES | specificity [1] | EC50 [1] | also measured
COc1ccc(CNc2ccc3c(c2)ncn3-c2ccc(OC)cc2)cc1 [Compound 600037, (4-methoxy-benzyl)-[1-(4-methoxy-phenyl)-1H-benzimidazol-5-yl]-amine] | 900 | 16 nM | EC50 [2]: < 100 nM; IC50 ([3]; read-out: average IC50 against LASV GP pseudotypes): 16 nM
COc1ccccc1-n1cnc2cc(NCc3ccc(N(C)C)cc3)ccc21 [Compound 600137, (4-dimethylamino-benzyl)-[1-(2-methoxy-phenyl)-1H-benzimidazol-5-yl]-amine] | – | > 12000 nM | –
CN(C)c1ccc(CNc2ccc3c(c2)ncn3-c2ccccc2)cc1 [Compound 600144, (4-dimethylamino-benzyl)-[1-phenyl-1H-benzimidazol-5-yl]-amine] | >1 | 11000 nM | –
COc1ccc(-n2cnc3cc(NCc4ccc(Br)cc4)ccc32)cc1 [Compound 600145, (4-bromo-benzyl)-[1-(4-methoxy-phenyl)-1H-benzimidazol-5-yl]-amine] | 300 | 40 nM | –
COc1ccc(-n2cnc3cc(NCc4ccccc4OC)ccc32)cc1 [Compound 600146, (2-methoxy-benzyl)-[1-(4-methoxy-phenyl)-1H-benzimidazol-5-yl]-amine] | >40 | 300 nM | –
CCOc1ccc(CNc2ccc3c(c2)ncn3-c2ccc(OC)cc2)cc1 [Compound 600147, (4-ethoxy-benzyl)-[1-(4-methoxy-phenyl)-1H-benzimidazol-5-yl]-amine] | >4000 | 3 nM | –
COc1ccc(-n2cnc3cc(NCc4cccc5ccccc45)ccc32)cc1 [Compound 600149, [1-(4-methoxy-phenyl)-1H-benzimidazol-5-yl]-napthalen-1-ylmethyl-amine] | >200 | 60 nM | –
COc1ccc(-n2cnc3cc(NCc4ccccc4O)ccc32)cc1 [Compound 600153, 2-[[1-(4-methoxy-phenyl)-1H-benzimidazol-5-ylamino]-methyl]-phenol] | >60 | 180 nM | –
COc1ccc(CNc2ccc3c(c2)ncn3-c2ccc(C)cc2)cc1 [Compound 600169, (4-methoxy-benzyl)-(1-p-tolyl-1H-benzimidazol-5-yl)-amine] | >500 | 20 nM | –
COc1ccc(-n2cnc3cc(NCc4ccc(Cl)cc4)ccc32)cc1 [Compound 600170, (4-chloro-benzyl)-[1-(4-methoxy-phenyl)-1H-benzimidazol-5-yl]-amine] | >200 | 40 nM | –
COc1ccc(-n2cnc3cc(NCc4ccc(OC)c(OC)c4)ccc32)cc1 [Compound 600172, (3,4-dimethoxy-benzyl)-[1-(4-methoxy-phenyl)-1H-benzimidazol-5-yl]-amine] | >10 | 700 nM | –
Brc1ccc(CNc2ccc3c(c2)ncn3-c2ccccc2)cc1 [Compound 600173, (4-bromo-benzyl)-(1-phenyl-1H-benzimidazol-5-yl)-amine] | >30 | 400 nM | –
CCOc1ccc(CN(c2ccc3c(c2)ncn3-c2ccccc2OC)S(=O)(=O)c2ccc(C)cc2)cc1 [Compound 600179, N-(4-ethoxy-benzyl)-N-[1-(2-methoxy-phenyl)-1H-benzimidazol-5-yl]-4-methylbenzenesulfonamide] | >100 | 110 nM | –
COc1ccc(-n2cnc3cc(NCc4ccc(C)cc4)ccc32)cc1 [Compound 600188, [1-(4-methoxy-phenyl)-1H-benzimidazol-5-yl]-(4-methyl-benzyl)-amine] | >4000 | 3 nM | –
COc1ccc(-n2cnc3cc(NCc4cccc(OC)c4OC)ccc32)cc1 [Compound 600189, (2,3-dimethoxy-benzyl)-[1-(4-methoxy-phenyl)-1H-benzimidazol-5-yl]-amine] | 100 | 100 nM | –
COc1ccc(CNc2ccc3c(c2)ncn3-c2ccccc2OC)cc1 [Compound 600190, (4-methoxy-benzyl)-[1-(2-methoxy-phenyl)-1H-benzimidazol-5-yl]-amine] | 3 | 2000 nM | –
COc1ccc(-n2cnc3cc(NCc4cccc(OC)c4)ccc32)cc1 [Compound 600191, (3-methoxy-benzyl)-[1-(4-methoxy-phenyl)-1H-benzimidazol-5-yl]-amine] | >300 | 40 nM | –
COc1ccccc1-n1cnc2cc(NCc3cccc(OC)c3OC)ccc21 [Compound 600192, (2,3-dimethoxy-benzyl)-[1-(2-methoxy-phenyl)-1H-benzimidazol-5-yl]-amine] | none | 5000 nM | –
COc1ccc(-n2cnc3cc(NCc4ccc(C(C)C)cc4)ccc32)cc1 [Compound 600193, (4-isopropyl-benzyl)-[1-(4-methoxy-phenyl)-1H-benzimidazol-5-yl]-amine] | 13,000 | 1.1 nM | IC50 ([4]; Vesicular stomatitis virus, HEK-293T): ~30000 nM; IC50 [4]: 29000 ± 2500 nM; reduction of TCRV titer [5]: 1000 fold; EC50 [2]: < 100 nM; EC50 [6]: < 1 nM; IC50 [7]: 2.3 ± 1.3 nM; IC50 [8]: 12 ± 3 nM; IC50 [9]: 4 ± 2 nM; EC50 [10]: 4 nM; CC50 [11]: 48000 nM; solubility observation [12]: visual evidence of insolubility; IC50 ([3]; 72 h, read-out: IC50 ± SEM, Lassa (LASV wt) GP pseudotype): 1.6 ± 0.3 nM; IC50 [13]: 31000 ± 4000 nM; IC50 [14]: 0.34 ± 0.07 nM; IC50 [15]: 2600 ± 500 nM; IC50 [16]: 0.2 ± 0.03 nM
COc1ccc(CNc2ccc3c(c2)ncn3-c2ccccc2)cc1 [Compound 600196, (4-methoxy-benzyl)-(1-phenyl-1H-benzimidazol-5-yl)-amine] | >400 | 30 nM | –
COc1ccc(-n2cnc3cc(N(Cc4ccc(C(C)C)cc4)C(C)=O)ccc32)cc1 [Compound 600362] | 40 | 400 nM | –
COc1ccc(-n2cnc3cc(N(Cc4ccc(C(C)C)cc4)S(=O)(=O)c4ccc(C)cc4)ccc32)cc1 [Compound 600363, N-(4-isopropyl-benzyl)-N-[1-(4-methoxy-phenyl)-1H-benzimidazol-5-yl]-4-methylbenzenesulfonamide] | 100 | 200 nM | –
